Key:
Assay type in all cases: biochemical
poly(dC) = assay: Apparent miscoding on homopolymeric template poly(dC); details: for Relative rate of incorporation GTP/ATP / Relative rate of incorporation GTP/CTP / Relative rate of incorporation GTP/UTP / Relative rate of incorporation of rGTP vs non-complementary rNTPs: poly(dC); for Relative rate of incorporation GTP/ATP / Relative rate of incorporation GTP/CTP / Relative rate of incorporation GTP/UTP: Mg^2+ buffer
Experimental: (§1) Transcription reactions: Transcription reactions were carried out in 40 mM Tris-Cl pH 8.0, 15 mM MgCl2, and 5 mM DTT or 20 mM Manganese Citrate pH 8.0, 5 mM DTT at 37° C. Template, polymerase, and NTP concentrations were as indicated in the legends to the figures and tables. Relative activity determinations were made by taking 4 μl aliquots of reactions at 5, 10, and 20 minute time points and spotting on to DE81 filter paper. Unincorporated nucleotides were separated from incorporated nucleotides by washing the filter paper with 0.5 M KH2PO4 pH 7.0 and retained radioactive nucleotide was quantitated with a Molecular Dynamics phosphorimager. To evaluate rNTP/dNTP selectivity, reactions were run with 4 rNTPs and pT75 as template and α-P^32 rNTPs or α-P^32 dNTPs were used to label the transcripts. The relative rate of incorporation of an rNTP vs. its cognate dNTP was determined from the relative percentages of labeled rNTP vs. dNTP incorporated into DE81 retainable RNA at 5, 10, and 20 minute time points. Apparent miscoding frequencies were determined similarly, though in this instance the template was a single-stranded homopolymer and the reaction contained the complementary unlabeled rNTP, and complementary α-P^32 rNTP or one of the 3 non-complementary α-P^32 rNTPs. The relative percentages of labeled complementary vs. non-complementary rNTPs incorporated at 5, 10 and 20 minute time points gave an apparent miscoding rate. The rNTP/dNTP selectivity assay was used to test the following T7 RNAP mutants for effects on substrate discrimination: D537S, D537E, S539A, R5S1S, D552S, R627S, K631S, L637A, Y639S, Y639F, Y639A, G640A, F644A, G645A, Q649S, […], H811S, H811A, D812A, D812E, D812S, D812N, D879E+ΔF882+ΔA883, D879E+A881T+ΔA883, D879E+F884+A885, D879E+F882Y, D879E+ΔA883, D879E+F882W, D879E.
An increase in miscoding would be reflected in an increase in the rate of incorporation of the non-complementary NTP into RNA.
Numbers are averages from 2 experiments and reflect the ratio of the percentages of labeled rNTPs incorporated into RNA in reactions in which unlabeled complementary rNTPs were in great excess (0.5 mM) to labeled complementary or non-complementary rNTPs. Templates were at 0.1 mg/ml. Polymerases were at 10^−8 M in Mg^2+ buffer and 10^−7 M in Mn^2+ buffer.
*The upper number refers to results obtained in Mg^2+ buffer, the lower number to results in Mn^2+ buffer. n.d.: G640A, Y639A, Y639S were poorly active in Mn^2+ buffer, or on poly(dT) under all conditions.

poly(dI)·poly(dC) = assay: Relative activity on poly(dI)·poly(dC)
Experimental: as §1
DNA and RNA synthesis on homopolymeric templates: T7 RNAP will synthesize poly(rG) RNAs on poly(dC) templates (Bonner, et al., 1994; Ikeda and Richardson 1987). The activity of the W.T. and mutant polymerases were measured on poly(dI)-poly(dC) with rGTP, dGTP, dGTP+rGMP (see, Table III).
Numbers give mean and range from 3 experiments. Templates were at 0.2 mg/ml, polymerases at 10^-8 M. Labeling NTPs were α-P^32 rGTP, α-P^32 dGTP, α-P^32 rATP, α-P^32 dATP, as appropriate. rNTPs or rNMPs at 0.5 mM; dNTPs at 1 mM.

pT75 = assay: Activity with NTPs containing different 2′-substituents; set-up: unit not given here
Experimental: Activity was determined with pT75 as template but with one of the rNTPs replaced with a dNTP or a 2′-modified NTP. The labeling NTP was UTP (in reactions with 2′-modified CTPs or ATPs) or CTP (in reactions with 2′-modified UTPs). Y639F and Y639M represent enzymes with substitutions of the wild-type (W.T.) tyrosine at position 639 by phenyalanine (F) or methionine (M), respectively.

[1] = 2′-group discrimination of M635 mutants; details: wild-type or Y639F T7 RNAP background
Experimental: Other mutations: It is conceivable that, in the absence of a bound rNTP, a hydrogen bond forms between Y639 and some other active site side chain. The possibility of an interaction between M635 and Y639 was tested since M635 and Y639 are close and M635 approaches the ribose in our models of NTP in T7 RNAP (Huang, et al., submitted for publication). This position is methionine in the T7 RNAP class of RNAPs (McAllister, W.T., 1993), but is either tyrosine or phenylalanine in the homologous DNAPs, and in the DNAP mutants at this site (i.e., positions homologous to position 762 in E. coli DNAP I) that affect dNTP/ddNTP discrimination (Tabor. S., and Richardson, C. C., European patent application, 1994). […] Additional studies will reveal whether these M635 mutations have other effects, such as effects on discrimination at the 3′-position of the sugar, or effects on discrimination with respect to NTPs with other substituents, such as fluorine at the 2′ position of the sugar. Also, studies on similar double mutations at the homologous sites in the homologous class I DNAPs will reveal the effects of such double mutations on discrimination at the 2′- and 3′-positions of the sugar; specifically, these studies will reveal whether class I DNAPs having a phenylalanine at the position homologous to amino acid position 766 in E. coli DNAP I have reduced discrimination for rNTPs if the amino acid is methionine or tyrosine at the position homologous to amino acid position 762 in E. coli DNAP I.

[2] = rGTP, mean and range from 3 experiments

Substance | Activity in Mn^2+ buffer, or on poly(dT) under all conditions (poly(dC)) | Relative rate of incorporation GTP/ATP (poly(dC)) | Relative rate of incorporation GTP/CTP (poly(dC)) | Relative rate of incorporation GTP/UTP (poly(dC)) | Relative activity on poly(dI)·poly(dC) (poly(dI)·poly(dC); dGTP) | Relative activity on poly(dI)·poly(dC) (poly(dI)·poly(dC); dGTP + rGMP) | Relative activity on poly(dI)·poly(dC) (poly(dI)·poly(dC); [2]) | 2′-group discrimination with respect to dNTPs and rNTPs [1] | other results
G640A: T7 RNAP mutant adjacent to Y639 that does not affect substrate discrimination [reference compound] | poorly active | 388 | 508 | >1320 | <5 | <5 | 240 (200-270) | – | –
Y639S: poorly active non-conservative tyrosine 639 mutation of T7 RNAP | poorly active | >50 | >50 | >50 | .6 | 4.4 | 48 (47-50) | – | Relative rate of incorporation of rGTP vs non-complementary rNTPs (poly(dC)): 50 fold
Y639M: T7 RNAP with tyrosine at position 639 substituted by methionine | – | – | – | – | – | – | – | – | Activity (pT75; 2′-F-ATP replacing ATP): 9.7 ± .20; Activity (pT75; 2′-F-CTP replacing CTP): 47 ± .70; Activity (pT75; 2′-F-UTP replacing UTP): 23 ± .72; Activity (pT75; 2′-NH2-ATP replacing ATP): .92 ± .035; Activity (pT75; 2′-NH2-CTP replacing CTP): 21 ± .38; Activity (pT75; 2′-NH2-UTP replacing UTP): 3.6 ± .19; Activity (pT75; 2′-dATP replacing ATP): 3.2 ± .11; Activity (pT75; 2′-dCTP replacing CTP): 32 ± 1.1; Activity (pT75; 2′-dUTP replacing UTP): 11 ± .46; Activity (pT75; ATP): 51 ± 1.3; Activity (pT75; CTP): 54 ± 3.9; Activity (pT75; UTP): 50 ± 1.2
Y639A: poorly active non-conservative tyrosine 639 mutation of T7 RNAP | poorly active | >184 | >184 | >184 | 5.3 (4.8-5.5) | 25 (17-30) | 145 (142-151) | – | Relative rate of incorporation of rGTP vs non-complementary rNTPs (poly(dC)): 184 fold
M635F: T7 RNAP M635 mutant | – | – | – | – | – | – | – | did not affect 2′-group discrimination | –
M635Y: T7 RNAP M635 mutant | – | – | – | – | – | – | – | did not affect 2′-group discrimination | –
M635A: T7 RNAP M635 mutant | – | – | – | – | – | – | – | did not affect 2′-group discrimination | –

Reference: patent US20050069907A1, “Methods for using double-mutant RNA polymerases with reduced discrimination between non-canonical and canonical nucleoside triphosphates” (priority 2002, published 2005)
